In ChEMBL document CHEMBL1208788 (Bioorg Med Chem Lett, 2010):

What follows are molecules tested against Cannabinoid receptor 1 (Homo sapiens, UniProt P21554) (assay: Displacement of [3H][…] from human recombinant cannabinoid CB1 receptor expressed in CHO cells).
Format: cell-based

Sequence of Cannabinoid receptor 1 (P21554 whole entry): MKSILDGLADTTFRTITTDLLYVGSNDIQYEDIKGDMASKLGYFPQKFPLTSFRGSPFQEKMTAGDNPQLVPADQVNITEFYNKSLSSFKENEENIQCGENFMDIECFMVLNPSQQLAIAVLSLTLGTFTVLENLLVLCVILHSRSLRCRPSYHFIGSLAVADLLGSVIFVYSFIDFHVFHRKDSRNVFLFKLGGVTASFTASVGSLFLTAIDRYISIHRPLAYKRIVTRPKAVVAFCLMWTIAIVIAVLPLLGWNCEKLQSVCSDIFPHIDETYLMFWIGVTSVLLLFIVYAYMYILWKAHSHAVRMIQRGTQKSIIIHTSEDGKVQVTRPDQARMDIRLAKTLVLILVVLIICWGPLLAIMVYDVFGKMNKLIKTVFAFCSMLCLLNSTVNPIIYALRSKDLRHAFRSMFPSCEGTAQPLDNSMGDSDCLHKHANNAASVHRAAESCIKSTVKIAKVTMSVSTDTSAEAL

SMILES	IC50
CC(C)(Oc1ccc(C(F)(F)F)cn1)C(=O)N1CC(Cc2ccc(Cl)cc2)(c2ccccc2)C1	1300 nM
C[C@H](NC(=O)C(C)(C)Oc1ccc(C(F)(F)F)cn1)[C@@H](Cc1ccc(Cl)cc1)c1cccc(Br)c1 (racemic)	0.59 nM
CC(NC(=O)C(C)(C)Oc1ccc(C(F)(F)F)cn1)C(C)(Cc1ccc(Cl)cc1)c1cccc(Br)c1 (racemic)	25 nM
CC(C)(Oc1ccc(C(F)(F)F)cn1)C(=O)N1CCC(Cc2ccc(Cl)cc2)(c2ccccc2)C1 (racemic)	810 nM

The remaining lines, values ahead:

IC50	SMILES
22 nM	CC(C)(Oc1ccc(C(F)(F)F)cn1)C(=O)NC(C)(C)[C@@H](Cc1ccc(Cl)cc1)c1cccc(Br)c1 (racemic)
340 nM	CC(C)(Oc1ccc(C(F)(F)F)cn1)C(=O)NCC(C)(Cc1ccc(Cl)cc1)c1cccc(Br)c1 (racemic)
2000 nM	CC(C)(Oc1ccc(C(F)(F)F)cn1)C(=O)N1CCCC(Cc2ccc(Cl)cc2)(c2ccccc2)C1 (racemic)
260 nM	CC(NC(=O)C(C)(C)Oc1ccc(C(F)(F)F)cn1)C(C)(Cc1ccc(Cl)cc1)c1cccc(Br)c1 (stereo in doubt; 5b)
